Data reported in article PMC8776063, “Aurora Kinase A Is Involved in Controlling the Localization of Aquaporin-2 in Renal Principal Cells” (International Journal of Molecular Sciences, 2022).
Where two headings read alike, the source gives them in different places.

Columns and labels:
[1] = system: CFL1 phosphorylation in primary IMCD cells; assay: CFL1 phosphorylation, Western blotting; assay type: cell-based, rat; details: compound 20 µM, 1 h
[2] = system: AURKA; details: cited from earlier work
[3] = molecular target: T1, STK38L (Homo sapiens, UniProt Q9Y2H1); assay: Thermal shift assay; assay type: binding; details: read-out: ΔTm STK38L
T1 construct: purchased in-house thermal shift (DSF) kinase panel (SGC Frankfurt); Promega NanoBRET for AURKA/B/C
T1 sequence (Q9Y2H1 90-453): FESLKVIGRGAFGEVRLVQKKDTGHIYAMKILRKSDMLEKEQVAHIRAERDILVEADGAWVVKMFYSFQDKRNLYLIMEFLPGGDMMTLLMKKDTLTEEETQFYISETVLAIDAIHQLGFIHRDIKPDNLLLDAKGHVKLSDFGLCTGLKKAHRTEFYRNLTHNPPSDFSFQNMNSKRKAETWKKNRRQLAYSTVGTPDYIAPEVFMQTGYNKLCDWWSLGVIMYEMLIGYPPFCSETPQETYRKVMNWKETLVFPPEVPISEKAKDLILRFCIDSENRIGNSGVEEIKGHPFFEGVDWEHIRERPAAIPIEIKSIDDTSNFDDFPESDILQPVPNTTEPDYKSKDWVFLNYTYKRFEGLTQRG

[4] = molecular target: T2, CASK (Homo sapiens, UniProt O14936); assay: Thermal shift assay; assay type: binding; details: read-out: ΔTm CASK
T2 construct: purchased in-house thermal shift (DSF) kinase panel (SGC Frankfurt); Promega NanoBRET for AURKA/B/C
T2 sequence (O14936 1-337): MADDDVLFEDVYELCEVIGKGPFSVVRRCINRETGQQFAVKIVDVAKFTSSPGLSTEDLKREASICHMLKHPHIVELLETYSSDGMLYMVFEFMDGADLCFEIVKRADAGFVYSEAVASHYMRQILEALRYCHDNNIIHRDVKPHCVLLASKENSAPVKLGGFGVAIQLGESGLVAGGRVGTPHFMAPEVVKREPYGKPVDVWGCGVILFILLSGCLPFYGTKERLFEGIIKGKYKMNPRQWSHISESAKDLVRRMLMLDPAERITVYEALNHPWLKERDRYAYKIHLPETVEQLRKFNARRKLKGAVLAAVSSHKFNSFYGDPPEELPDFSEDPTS

[5] = molecular target: T3, AURKA (Homo sapiens, UniProt O14965); assay: Thermal shift assay; assay type: binding; details: read-out: ΔTm AURKA
T3 construct: purchased in-house thermal shift (DSF) kinase panel (SGC Frankfurt); Promega NanoBRET for AURKA/B/C
T3 sequence (O14965 122-403): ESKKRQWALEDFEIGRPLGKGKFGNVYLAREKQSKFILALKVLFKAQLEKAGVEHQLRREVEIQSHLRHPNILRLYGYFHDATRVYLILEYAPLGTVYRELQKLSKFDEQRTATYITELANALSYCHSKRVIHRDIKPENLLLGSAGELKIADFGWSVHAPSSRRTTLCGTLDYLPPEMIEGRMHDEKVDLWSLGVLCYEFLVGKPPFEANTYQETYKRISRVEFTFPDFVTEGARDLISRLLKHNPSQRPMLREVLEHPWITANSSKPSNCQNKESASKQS

[6] = system: ARID1A-deficient colorectal cancer cells; parameters: method as in PMID 30097580; details: cited from earlier work
[7] = molecular target: T4, GAK (Homo sapiens, UniProt O14976); assay: Thermal shift assay; assay type: binding; details: read-out: ΔTm GAK
T4 construct: purchased in-house thermal shift (DSF) kinase panel (SGC Frankfurt); Promega NanoBRET for AURKA/B/C
T4 sequence (O14976 14-351): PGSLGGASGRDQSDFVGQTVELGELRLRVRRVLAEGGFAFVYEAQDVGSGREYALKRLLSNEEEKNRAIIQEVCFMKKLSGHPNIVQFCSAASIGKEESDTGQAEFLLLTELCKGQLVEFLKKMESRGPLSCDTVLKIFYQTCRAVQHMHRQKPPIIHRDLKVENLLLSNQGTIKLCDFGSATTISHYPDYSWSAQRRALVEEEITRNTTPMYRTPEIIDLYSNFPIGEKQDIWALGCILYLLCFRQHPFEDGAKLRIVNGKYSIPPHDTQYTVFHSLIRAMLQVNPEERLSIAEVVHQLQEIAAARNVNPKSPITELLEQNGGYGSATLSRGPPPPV

[8] = system: HCT116; parameters: method as in PMID 19402633, PMID 30097580; details: colon cancer cell line HCT116; cited from earlier work
[9] = system: primary IMCD cells; assay: F-actin stress fiber staining (phalloidin); assay type: cell-based, rat; details: compound 20 µM, 1 h
[10] = system: complex of AURKA and TPX2; parameters: method as in PMID 26732741; details: cited from earlier work
[11] = system: MCD4 cells; assay: MTS assay (cell viability); assay type: cell-based, mouse; details: 30 µM, 10 µM or 1 µM, 1 h; compared to untreated cells

Row | Structure (SMILES) | CFL1 phosphorylation [1] | IC50 ([2]; cell-free assay) | selectivity for AURKA over AURKB [2] | ΔTm at 10 µM [3] | ΔTm at 10 µM [4] | ΔTm at 10 µM [5] | cell cycle arrest, multinucleation and apoptosis [6] | ΔTm at 10 µM [7] | antiproliferative effects [8] | effect on actin stress fibers [9] | increase of binding to the AURKA-TPX2 complex [10] | viability of MCD4 cells [11] | ΔTm at 10 µM ([3]; compound 10 µM, n = 3) | ΔTm at 10 µM ([4]; compound 10 µM, n = 3) | ΔTm at 10 µM ([5]; compound 10 µM, n = 3) | ΔTm at 10 µM ([7]; compound 10 µM, n = 3)
1 | CCN1CCN(C(=O)Cc2ccc(Nc3ncc(F)c(Nc4ccc(C(=O)Nc5ccccc5Cl)cc4)n3)cc2)CC1 [Aurora-A inhibitor I, reference compound] | Relatively low levels | 3.4 nM | 1000 fold | 2.1 °C | 0.2 °C | 15.2 °C | G2/M cell cycle arrest, multinucleation, and apoptosis | 5 °C | Antiproliferative effects | depolymerization of actin stress fibers | 2.4 fold | did not elicit any significant effects | – | – | – | –
2 | O=C(Cc1ccc(Nc2ncc(F)c(Nc3ccc(C(=O)Nc4ccccc4Cl)cc3)n2)cc1)NCCN1CCOCC1 [ERJ2-04] | – | – | – | – | – | – | – | – | – | Comparable effects | – | reduced by 10 or 30 µM | 1.5 °C | 0.1 °C | 13 °C | 4.5 °C
3 | NC(=O)Cc1ccc(Nc2ncc(F)c(Nc3ccc(C(=O)Nc4ccccc4Cl)cc3)n2)cc1 [ERJ2-06] | – | – | – | – | – | – | – | – | – | Comparable effects | – | did not elicit any significant effects | 2.5 °C | 0.1 °C | 15.5 °C | 5.1 °C
4 | CCN1CCN(C(=O)Cc2ccc(Nc3ncc(F)c(Nc4ccc(C(=O)Nc5ccccc5)cc4)n3)cc2)CC1 [ERJ2-11] | – | – | – | – | – | – | – | – | – | promoted or maintained the formation of actin stress fibers | – | reduced by 10 or 30 µM | 2.6 °C | -0.1 °C | 13.8 °C | 4.9 °C
5 | CCN1CCN(C(=O)Cc2ccc(Nc3ncc(F)c(Nc4ccc(C(=O)O)cc4)n3)cc2)CC1 [ERJ2-12] | – | – | – | – | – | – | – | – | – | resembled those of the control cells | – | does not affect | 0.2 °C | 0 °C | 9.5 °C | 2.7 °C
